Target: T1, SIRT1 (Homo sapiens, UniProt Q96EB6)
T1 sequence (Q96EB6 1-747): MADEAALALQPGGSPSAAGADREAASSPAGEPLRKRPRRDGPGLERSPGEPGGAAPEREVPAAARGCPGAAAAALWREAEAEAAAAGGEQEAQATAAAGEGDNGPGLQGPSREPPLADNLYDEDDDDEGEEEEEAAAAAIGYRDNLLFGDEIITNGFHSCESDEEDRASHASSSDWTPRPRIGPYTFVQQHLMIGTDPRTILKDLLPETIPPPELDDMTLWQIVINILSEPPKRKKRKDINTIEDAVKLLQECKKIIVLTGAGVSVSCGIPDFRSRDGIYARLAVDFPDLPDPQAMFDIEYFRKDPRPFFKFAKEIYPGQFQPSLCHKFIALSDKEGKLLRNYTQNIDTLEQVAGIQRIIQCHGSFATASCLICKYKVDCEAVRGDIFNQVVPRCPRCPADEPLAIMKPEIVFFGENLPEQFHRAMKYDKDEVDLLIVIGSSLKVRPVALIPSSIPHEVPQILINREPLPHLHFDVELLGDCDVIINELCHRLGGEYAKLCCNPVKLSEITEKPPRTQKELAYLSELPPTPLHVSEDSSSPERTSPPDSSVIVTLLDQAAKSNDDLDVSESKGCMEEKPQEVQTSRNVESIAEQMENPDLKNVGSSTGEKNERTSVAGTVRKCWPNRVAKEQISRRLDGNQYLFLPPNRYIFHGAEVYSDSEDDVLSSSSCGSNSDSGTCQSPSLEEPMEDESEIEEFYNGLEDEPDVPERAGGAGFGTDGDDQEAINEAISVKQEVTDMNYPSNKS
Test: Mass spectrometry based SIRT1 deacetylation (activation) assay
Type: biochemical
Details: 0.5 μM peptide substrate, 120 μM βNAD+, 10 nM SIRT1, 25 min at 25° C.; for Emax: 25 min, read-out: % Fold Act. (percent maximum fold activation)
Description: A mass spectrometry based assay was used to identify modulators of SIRT1 activity. The mass spectrometry based assay utilizes a peptide having 20 amino acid residues as follows: Ac-EE-K(biotin)-GQSTSSHSK(Ac)NleSTEG-K(5TMR)-EE-NH2 (SEQ ID NO: 1) wherein K(Ac) is an acetylated lysine residue and Nle is a norleucine. The peptide is labeled with the fluorophore 5TMR (excitation 540 nm/emission 580 nm) at the C-terminus. The sequence of the peptide substrate is based on p53 with several modifications. In addition, the methionine residue naturally present in the sequence was replaced with the norleucine because the methionine may be susceptible to oxidation during synthesis and purification.
The mass spectrometry assay is conducted as follows: 0.5 μM peptide substrate and 120 μM βNAD^+ is incubated with 10 nM SIRT1 for 25 minutes at 25° C. in a reaction buffer (50 mM Tris-acetate pH 8, 137 mM NaCl, 2.7 mM KCl, 1 mM MgCl2, 5 mM DTT, 0.05% BSA). Test compounds may be added to the reaction as described above. […] After the 25 minute incubation with SIRT1, 10 μL of 10% formic acid is added to stop the reaction. Reactions are sealed and frozen for later mass spec analysis. Determination of the mass of the substrate peptide allows for precise determination of the degree of acetylation (i.e. starting material) as compared to deacetylated peptide (product).
A control for inhibition of sirtuin activity is conducted by adding 1 μL of 500 mM nicotinamide as a negative control at the start of the reaction (e.g., permits determination of maximum sirtuin inhibition). A control for activation of sirtuin activity is conducted using 10 nM of sirtuin protein, with 1 μL of DMSO in place of compound, to determine the amount of deacetylation of the substrate at a given timepoint within the linear range of the assay. This timepoint is the same as that used for test compounds and, within the linear range, the endpoint represents a change in velocity.
For the above assay, SIRT1 protein was expressed and purified as follows. […] The protein was expressed by induction with 1 mM IPTG as an N-terminal His-tag fusion protein at 18° C. overnight and harvested at 30,000×g. Cells were lysed with lysozyme in lysis buffer (50 mM Tris-HCl, 2 mM Tris[2-carboxyethyl]phosphine (TCEP), 10 μM ZnCl2, 200 mM NaCl) and further treated with sonication for 10 min for complete lysis. The protein was purified over a Ni-NTA column (Amersham) and fractions containing pure protein were pooled, concentrated and run over a sizing column (Sephadex S200 26/60 global). The peak containing soluble protein was collected and run on an Ion-exchange column (MonoQ). Gradient elution (200 mM-500 mM NaCl) yielded pure protein. This protein was concentrated and dialyzed against dialysis buffer (20 mM Tris-HCl, 2 mM TCEP) overnight. The protein was aliquoted and frozen at −80° C. until further use.

Row | EC1.5 | Emax | Structure (SMILES)
1 | A (EC1.5≦1 uM) | 150 to 300% | CCN(CCN(C)C)c1cc(C(=O)Nc2ccccc2-c2ncc(-c3ccccc3)o2)nc(-c2ccccc2)n1 [Compound 64]
2 | B (EC1.5>1 and ≦10 uM) | ≥ 300% | CC(=O)c1ccccc1NC(=O)c1cc(N2CCNCC2)nc(-c2ccccc2)n1 [Compound 138]
3 | A (EC1.5≦1 uM) | ≥ 300% | CCN(CCN(C)C)c1cc(C(=O)Nc2ccccc2-c2nnc([S+](C)[O-])s2)nc(-c2ccccc2)n1 (centres unmarked) [Compound 116]
4 | A (EC1.5≦1 uM) | ≥ 300% | COC(=O)c1ccccc1NC(=O)c1cc(NCCN(C)C)nc(-c2ccccc2)n1 [Compound 5]
5 | C (EC1.5>10 uM) | 150 to 300% | CN(C)CCN(C)c1cc(C(=O)Nc2ccccc2-c2nnc(-c3ccccc3)s2)nc(-c2ccccc2)n1 [Compound 179]
6 | A (EC1.5≦1 uM) | ≥ 300% | CN(C)CCNc1cc(C(=O)Nc2ccccc2-c2nnc(-c3ccncc3)s2)nc(-c2ccccc2)n1 [Compound 78]
7 | A (EC1.5≦1 uM) | 150 to 300% | CCN(CCN(C)C)c1cc(C(=O)Nc2ccccc2-c2nnc(C(N)=O)s2)nc(-c2ccccc2)n1 [Compound 71]
8 | A (EC1.5≦1 uM) | 150 to 300% | CCN(CCN(C)C)c1cc(C(=O)Nc2ccccc2-c2nnc(C(=O)NC)s2)nc(-c2ccccc2)n1 [Compound 86]
9 | A (EC1.5≦1 uM) | ≥ 300% | COCCN(CCOC)c1cc(C(=O)Nc2ccccc2C(C)=O)nc(-c2ccccc2)n1 [Compound 141]
10 | A (EC1.5≦1 uM) | ≥ 300% | CCN(CCN(C)C)c1cc(C(=O)Nc2ccccc2-c2ncc(C(C)(C)C)o2)nc(-c2ccccc2)c1 [Compound 43]
11 | A (EC1.5≦1 uM) | ≥ 300% | O=C(Nc1ccccc1-c1nnc(N2CCOCC2)s1)c1cc(OC[C@H](O)CO)nc(-c2ccccc2)n1 [Compound 109]
12 | B (EC1.5>1 and ≦10 uM) | 150 to 300% | CCCc1nnc(-c2ccccc2NC(=O)c2cc(NCCN(C)C)nc(-c3ccccc3)n2)s1 [Compound 54]
13 | A (EC1.5≦1 uM) | 150 to 300% | CCN(CCOC)c1cc(C(=O)Nc2ccccc2-c2nnc(N3CCOCC3)s2)nc(-c2ccccc2)n1 [Compound 107]
14 | A (EC1.5≦1 uM) | ≥ 300% | CNCCN(C)c1cc(C(=O)Nc2ccccc2-c2nnc(-c3ccccc3)s2)nc(-c2ccccc2)n1 [Compound 32]
15 | A (EC1.5≦1 uM) | ≥ 300% | CN(C)CCNc1cc(C(=O)Nc2ccccc2C(=O)Nc2cccnc2)nc(-c2ccccc2)n1 [Compound 155, 6-(2-(dimethylamino)ethylamino)-2-phenyl-N-(2-(pyridin-3-ylcarbamoyl)phenyl)pyrimidine-4-carboxamide]
16 | B (EC1.5>1 and ≦10 uM) | 150 to 300% | CN(C)CCNc1cc(C(=O)Nc2ccccc2C(=O)NCCC(=O)O)nc(-c2ccccc2)n1 [Compound 130, 3-(2-(6-(2-(dimethylamino)ethylamino)-2-phenylpyrimidine-4-carboxamido)benzamido)propanoic acid]
17 | B (EC1.5>1 and ≦10 uM) | 150 to 300% | CN(C)CCNc1cc(C(=O)Nc2ccccc2-c2nc(-c3ccccc3)cs2)nc(-c2ccccc2)n1 [Compound 14]

Row | EC1.5 | Emax | Structure (SMILES)
18 | A (EC1.5≦1 uM) | ≥ 300% | CN(C)CCNc1cc(C(=O)Nc2ccccc2C(=O)Nc2cccc(S(C)(=O)=O)c2)nc(-c2ccccc2)n1 [Compound 154, 6-(2-(dimethylamino)ethylamino)-N-(2-(3-(methylsulfonyl)phenylcarbamoyl)phenyl)-2-phenylpyrimidine-4-carboxamide]
19 | A (EC1.5≦1 uM) | 150 to 300% | CCc1nnc(-c2ccccc2NC(=O)c2cc(N(CC)CCN(C)C)nc(-c3ccccc3)n2)s1 [Compound 55]
20 | B (EC1.5>1 and ≦10 uM) | 150 to 300% | CN(C)CCNc1cc(C(=O)Nc2ccccc2C(=O)c2ccccc2)nc(-c2ccccc2)n1 [Compound 131]
21 | B (EC1.5>1 and ≦10 uM) | 150 to 300% | CN(C)CCNc1cc(C(=O)Nc2ccccc2-c2ncc(C(C)(C)C)s2)nc(-c2ccccc2)n1 [Compound 37]
22 | A (EC1.5≦1 uM) | ≥ 300% | CCN(CCOC)c1cc(C(=O)Nc2ccccc2-c2ncc(C(C)(C)C)o2)nc(-c2ccccc2)c1 [Compound 85]
23 | B (EC1.5>1 and ≦10 uM) | 150 to 300% | CCN(CCN(C)C)c1cc(C(=O)Nc2ccccc2-c2ncc(C(C)(C)C)o2)nc(-c2ccccc2)n1 [Compound 65]
24 | C (EC1.5>10 uM) | 150 to 300% | CC(O)c1ccccc1NC(=O)c1cc(NCCN(C)C)nc(-c2ccccc2)n1 (centres unmarked) [Compound 133]
25 | A (EC1.5≦1 uM) | ≥ 300% | O=C(Nc1ccccc1-c1nncs1)c1cc(OCC(O)CO)nc(-c2ccccc2)n1 (centres unmarked) [Compound 111]
26 | A (EC1.5≦1 uM) | ≥ 300% | CCN(CCN(C)C)c1cc(C(=O)Nc2ccccc2-c2nnc(C(F)=C3CCOCC3)s2)nc(-c2ccccc2)n1 [Compound 114, 6-((2-(dimethylamino)ethyl)(ethyl)amino)-N-(2-(5-(fluoro(2H-pyran-4(3H,5H,6H)-ylidene)methyl)-1,3,4-thiadiazol-2-yl)phenyl)-2-phenylpyrimidine-4-carboxamide]
27 | A (EC1.5≦1 uM) | ≥ 300% | CCN(CCN(C)C)c1cc(C(=O)Nc2ccccc2-c2nnc(NC(=O)N3CCOCC3)s2)nc(-c2ccccc2)n1 [Compound 113]
28 | B (EC1.5>1 and ≦10 uM) | 150 to 300% | CCN(CC)C(=O)c1ccccc1NC(=O)c1cc(NCCN(C)C)nc(-c2ccccc2)n1 [Compound 124, N-(2-(diethylcarbamoyl)phenyl)-6-(2-(dimethylamino)ethylamino)-2-phenylpyrimidine-4-carboxamide]
29 | A (EC1.5≦1 uM) | ≥ 300% | CC(=O)c1ccccc1NC(=O)c1cc(NC2CCN(C(C)C)CC2)nc(-c2ccccc2)n1 [Compound 137]
30 | A (EC1.5≦1 uM) | 150 to 300% | CN(C)CCNc1cc(C(=O)Nc2ccccc2-c2ncc(-c3ccccc3)s2)nc(-c2ccccc2)n1 [Compound 13]
31 | B (EC1.5>1 and ≦10 uM) | ≥ 300% | CC(C)(C)c1cnc(-c2ccccc2NC(=O)c2cc(OC[C@@H](O)CO)cc(-c3ccccc3)n2)s1 [Compound 75]
32 | B (EC1.5>1 and ≦10 uM) | 150 to 300% | CN(C)CCNC(=O)c1ccccc1NC(=O)c1cc(NCCN(C)C)nc(-c2ccccc2)n1 [Compound 121, 6-(2-(dimethylamino)ethylamino)-N-(2-(2-(dimethylamino)ethylcarbamoyl)phenyl)-2-phenylpyrimidine-4-carboxamide]
33 | A (EC1.5≦1 uM) | 150 to 300% | CCN(CCOC)c1cc(C(=O)Nc2ccccc2-c2ncc(C(C)(C)C)s2)nc(-c2ccccc2)c1 [Compound 84]
34 | B (EC1.5>1 and ≦10 uM) | 150 to 300% | CC(C)C(=O)c1ccccc1NC(=O)c1cc(NCCN(C)C)nc(-c2ccccc2)n1 [Compound 142]

From patent publication US20110039847A1, “AMIDE DERIVATIVES AS SIRTUIN MODULATORS” (Sirtris Pharmaceuticals, Inc, priority 2007, published 2011)
